Experimental data from US5958945A, “Naphthamide derivatives of 3-beta-amino azabicyclo octane or nonane as neuroleptic agents” (Pierre Fabre Medicament, priority 1995, dated 1999).
pKi: −log10 of the molar value. Where a name gives a salt, the structure may show the parent alone.

Legend:
D2 receptor = test: Binding: displacement of [^3 H] YM-09151-2 (D2 site); details: Ligand [^3 H] YM09151-2
Description: (§1) This process for studying specific binding is described Naunyn-Schmiedeberg's Arch. Pharmacol. 329, 333-338, 1985 and Mol. Pharmacol. 21, 301-314, 1982.

5-HT2 receptor = 5-HT2 receptor (Rattus norvegicus, UniProt P14842); test: Binding: displacement of [^3 H] Ketanserine (5-HT2 site); details: compared with the reference substances
5-HT2 receptor, sequence (P14842 whole entry): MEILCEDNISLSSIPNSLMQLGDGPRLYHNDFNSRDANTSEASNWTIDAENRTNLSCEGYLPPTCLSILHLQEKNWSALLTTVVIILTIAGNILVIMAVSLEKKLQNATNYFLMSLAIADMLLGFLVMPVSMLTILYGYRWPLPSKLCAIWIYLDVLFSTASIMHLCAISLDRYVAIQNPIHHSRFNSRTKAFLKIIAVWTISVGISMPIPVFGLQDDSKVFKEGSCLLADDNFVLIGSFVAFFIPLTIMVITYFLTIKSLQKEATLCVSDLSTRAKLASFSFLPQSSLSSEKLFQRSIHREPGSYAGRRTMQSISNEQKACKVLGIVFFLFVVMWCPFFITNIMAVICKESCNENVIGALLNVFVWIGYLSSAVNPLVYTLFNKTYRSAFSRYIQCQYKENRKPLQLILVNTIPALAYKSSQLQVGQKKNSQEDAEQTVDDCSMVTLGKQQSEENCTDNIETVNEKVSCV
Description: as §1

SMILES | pKi (D2 receptor) | affinity for the 5-HT2 receptor (in words) (5-HT2 receptor)
COc1c(C(=O)N[C@@H]2C[C@H]3CC[C@@H](C2)N3Cc2ccccc2)ccc2ccccc12 [Example 3, 1-Methoxy-N-[8-(phenylmethyl)-8-azabicyclo[3.2.1]oct-3-β-yl]-2-naphthalenecarboxamide] | 9.84 | 
COc1c(C(=O)N[C@@H]2C[C@H]3CC[C@@H](C2)N3Cc2ccccc2)cc(Br)c2ccccc12 [Example 4, 4-Bromo-1-methoxy-N-[8-(phenylmethyl)-8-azabicyclo[3.2.1]oct-3-β-yl]-2-naphthalenecarboxamide oxalate] | 9.11 | 
COc1c(C(=O)N[C@@H]2C[C@H]3CC[C@@H](C2)N3Cc2ccccc2)cc(Cl)c2ccccc12 [Example 5, 4-Chloro-1-methoxy-N-[8-(phenylmethyl)-8-azabicyclo[3.2.1]oct-3-β-yl)-2-naphthalenecarboxamide hydrochloride] | 9.39 | 
CCOc1c(C(=O)N[C@@H]2C[C@H]3CC[C@@H](C2)N3Cc2ccccc2)cc(Br)c2ccccc12 [Example 13, 4-Bromo-1-ethoxy-N-[8-(phenylmethyl)-8-azabicyclo[3.2.1]oct-3-β-yl]-2-naphthalenecarboxamide hydrochloride] | 9.03 | 
COc1c(C(=O)NC2CCN(Cc3ccccc3)CC2)ccc2ccccc12 [Patent EP 539,281 compound] | 8.48 | little or no 5-HT2 affinity
CCN1CCCC1CNC(=O)c1cc(S(N)(=O)=O)ccc1OC (stereo not drawn) [Sulpiride] | 8.33 | 
COc1cccc(C(=O)N[C@@H]2C[C@H]3CC[C@@H](C2)N3Cc2ccccc2)c1OC [Tropapride] | 9.97 | little or no 5-HT2 affinity
